{"source": "patent US20230241101A1", "about": "(priority 2020, published 2023)", "key": {"SARS-CoV-2 [1]": {"tested_on": "SARS-CoV-2", "assay": "GA treatment of COVID-19 golden hamster via intranasal administration", "type": "in vivo, golden hamster rats", "conditions": "nasal spray 25 mg/kg.bw daily, day 4"}, "SARS-CoV-2 [2]": {"tested_on": "SARS-CoV-2", "assay": "SARS-CoV-2 replication in Vero cells (qRT-PCR)", "type": "cell-based", "conditions": "read-out: EC50, inhibition of 50% SARS-CoV-2 replication in Vero cells"}, "BALB/c mice": {"tested_on": "BALB/c mice", "conditions": "cited from earlier work"}, "SD Rat": {"tested_on": "SD Rat", "conditions": "cited from earlier work"}, "Vero E6 cell": {"tested_on": "Vero E6 cell", "assay": "Cell viability CCK8, Vero E6 cells", "type": "cell-based", "conditions": "48 hrs", "protocol": "(§1) To test whether GA and AF are toxic to normal cells, Vero E6, RAW264.7, and 16HBE cell lines were tested. Various doses of AURANOFIN or GA gold cluster were added into cell culture media respectively. After 48 hours of incubation, cell viability was checked by CCK8 (Beyotime, China) following the manufacturer’s instruction, all studies were carried out in triplicate. All cell lines were obtained from ATCC with authentication service."}, "[3]": {"tested_on": "IL-6, IL-1β, TNF-α expression and NFκB pathway in 16HBE cells", "assay": "Western blot of cytokine expression and NFκB pathway, 16HBE cells", "type": "cell-based, human", "protocol": "(§2) RAW 264.7 or 16HBE cells were seeded into 6 well plates at a density of 2 × 10^6cells/well. […] The collected cell lysates were centrifuged at 13000 rpm for 10 min, and the supernatants were stored for the subsequent Western Blot analysis. The protein concentrations of the supernatants were determined using a microplate spectrophotometer (SPECTRAMAX M4 of Molecular Devices, USA) at a wavelength of 595 nm. An equal quantity of proteins (50 µg) was separated by running on 10% SDS-PAGE and the separated proteins were transferred to a polyvinylidene fluoride (PVDF) membrane (0.45 µm, Millipore, USA). […]"}, "SARS-CoV-2 [4]": {"tested_on": "SARS-CoV-2", "conditions": "Rothan et al, Virology 2020; read-out: EC50, SARS-CoV-2 replication in infected Huh cells; cited from earlier work"}, "[5]": {"tested_on": "macrophage RAW264.7 cells", "assay": "Cell viability CCK8, RAW264.7 cells", "type": "cell-based", "conditions": "48 hrs", "protocol": "as §1"}, "[6]": {"tested_on": "inflammatory cytokine levels", "conditions": "oral AF 6-9 mg/kg.bw; intraperitoneal GA 5 mg/kg.bw; cited from earlier work"}, "[7]": {"tested_on": "IL-6, IL-1β, TNF-α expression and NFκB pathway in RAW 264.7 cells", "assay": "Western blot of cytokine expression and NFκB pathway, RAW 264.7 cells", "type": "cell-based", "conditions": "AF 1.2 µM, GA 40 µM", "protocol": "as §2"}, "[8]": {"tested_on": "human bronchial epithelial cells (16HBE)", "assay": "Cell viability CCK8, 16HBE cells", "type": "cell-based", "conditions": "16HBE epithelial cell, 48 hrs", "protocol": "as §1"}, "SARS-CoV-2 M^pro": {"target": "SARS-CoV-2 M^pro (Severe acute respiratory syndrome coronavirus 2, UniProt P0DTD1)", "assay": "M^pro protease activity FRET assay", "type": "biochemical", "conditions": "no value printed (data not shown or figure only)"}}, "note": "Like-named read-outs stand apart in the source and are kept apart here."}
{"smiles": "CCC(CC)COC(=O)[C@H](C)N[P@](=O)(OC[C@H]1O[C@@](C#N)(c2ccc3c(N)ncnn23)[C@H](O)[C@@H]1O)Oc1ccccc1", "values": [{"measurement": "average pathological score of lung (INHAND)", "setting": "SARS-CoV-2 [1]", "value": "approx. 2.7"}, {"measurement": "EC50", "setting": "SARS-CoV-2 [2]; Severe acute respiratory syndrome coronavirus 2, Vero, 48 h", "value": "~650", "unit": "nM"}]}
{"smiles": "CC(=O)OC[C@H]1O[C@@H]([S-])[C@H](OC(C)=O)[C@@H](OC(C)=O)[C@@H]1OC(C)=O.CCP(CC)CC.[Au+]", "note": "[AF, AURANOFIN]", "values": [{"measurement": "LD50", "setting": "BALB/c mice; BALB/c Mice, AF known value", "value": "LD50, about 33.8 mg/kg.bw"}, {"measurement": "intraperitoneal LD50", "setting": "BALB/c mice; mice, known value", "value": "about 33.8 mg/kg"}, {"measurement": "LD50", "setting": "SD Rat; SD Rat, AF known value", "value": "LD50, about 25 mg/kg.bw"}, {"measurement": "intraperitoneal LD50", "setting": "SD Rat; rat, known value", "value": "about 25.5 mg/kg"}, {"measurement": "CC50", "setting": "Vero E6 cell", "value": "~2270", "unit": "nM"}, {"measurement": "phosphorylation level of IKK, IκB, p65 and IL-6, IL-1β, TNF-α expression", "setting": "[3]; bronchial epithelial cells, AF 0.15 µM, GA 20 µM", "value": "significantly inhibited"}, {"measurement": "IL-6, IL-1β, and TNF-α expression levels", "setting": "[3]; human bronchial epithelial cells, TNFα 50 ng/mL, 24 hrs, AF 1.2 µM, GA 40 µM", "value": "significantly suppressed"}, {"measurement": "EC50", "setting": "SARS-CoV-2 [4]", "value": "~1400", "unit": "nM"}, {"measurement": "CC50", "setting": "[5]", "value": "~2630", "unit": "nM"}, {"measurement": "inflammatory cytokine levels", "setting": "[6]", "value": "significant suppression"}, {"measurement": "phosphorylation of IKK, IκB, and p65 (NFκB activation)", "setting": "[7]; inflammatory macrophage cells", "value": "inhibit"}, {"measurement": "IL-6, IL-1β, and TNF-α expression levels", "setting": "[7]; macrophage cells, TNFα 50 ng/mL, 24 hrs", "value": "significantly suppressed"}, {"measurement": "EC50", "setting": "SARS-CoV-2 [2]; MOI 0.015, 48 h.p.i., qRT-PCR", "value": "~830", "unit": "nM"}, {"measurement": "CC50", "setting": "[8]", "value": "~630", "unit": "nM"}]}
{"smiles": "OC[C@H]1O[C@H]([S-])[C@H](O)[C@@H](O)[C@@H]1O.[Au+]", "note": "[aurothioglucose]", "values": [{"measurement": "inhibition / suppression of M^pro protease activity (in words)", "setting": "SARS-CoV-2 M^pro", "value": "able to inhibit"}]}
